From patent US20050106243A1, “Process for the preparation of free-flowing, pulverized atorvastatin adsorbates” (priority 2003, published 2005) come the findings set out here.

The nature of the series: Impurity profile (sum of all impurities, HPLC) at start and after storage. The format is physicochemical. How it is done: All HPLC measurements were performed with an […].
Impurity profile: Sum of all the impurities: HPLC, in %: […]

For `CC(C)c1c(C(=O)Nc2ccccc2)c(-c2ccccc2)c(-c2ccc(F)cc2)n1CC[C@@H](O)C[C@@H](O)CC(=O)[O-].CC(C)c1c(C(=O)Nc2ccccc2)c(-c2ccccc2)c(-c2ccc(F)cc2)n1CC[C@@H](O)C[C@@H](O)CC(=O)[O-].[Ca+2]` (relative stereo) [amorphous atorvastatin calcium, calcium salt of [R-(R*,R*)]-2-(4-fluorophenyl)-β,δ-dihydroxy-5-(1-methylethyl)-3-phenylphenylamino)carbonyl]-1H-pyrrol-1-heptanoic acid], the “Sum of all the impurities, HPLC” value runs as follows: (15 days (70° C./75% relative humidity)) 1.92%; (Start) 1.07%.
